Reference: PubChem BioAssay AID179 (DTP/NCI, 2004)
“And” between values parts separate entries of the source, which are not always exact repeats. Identical values can stand only once. The source made the active and inactive calls.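 Rule for the calls: active = compounds giving half or more protection of infected cells from virus-caused growth loss, again on retest; inactive = the rest.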

Tested on: CEM cells HIV-1 protection, formazan growth assay
Assay: NCI AIDS Antiviral Assay
Conditions: for IC50: measured here: growth of uninfected CEM cells
In short: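 CEM (human) cells, HIV-1 infected vs uninfected, 5-point dosing, formazan growth read-out. Retest threshold 50% protection.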

`COC(=O)[C@@]1(C)CCC[C@]2(C(=O)O)C3Cc4occc4[C@H](C)[C@@H]3CCC21` (stereo partly drawn) was tested, and the EC50 was over 200 µM and the IC50 was 105 µM.

`C=CCC1(C(C)C(O)c2cc(OC)c(OC)c(OC)c2)CC(O)C=CC12OCCO2` (stereo not drawn) was tested, and the EC50 was over 200 µM and the IC50 was 9.12 µM.

`CCOC(=O)NC(Nc1ccc([N+](=O)[O-])cc1)(C(F)(F)F)C(F)(F)F` was tested, and the EC50 was over 200 µM and the IC50 was 66.1 µM.

`O=C(O)c1ccc2c(c1)C(=O)c1ccccc1C2=O` gave an EC50 of over 200 µM and an IC50 of 97.7 µM.

Molecule `COC(=O)c1cc(C)ccc1/C=C1\Cc2cc(C)c(C)cc2C1=O` has an EC50 of over 100 µM and an IC50 of over 100 µM.

Molecule `c1ccc2sc(SCN3CCN(CSc4nc5ccccc5s4)CC3)nc2c1` has an EC50 of over 1.62 µM and an IC50 of over 1.62 µM.

`C=CCOC1=C(OC(C)=O)C(C2COC(C)(C)O2)OC1=O` (stereo not drawn) showed an EC50 of over 200 µM and an IC50 of 16.2 µM.

With `CC(=O)OCCCC(NC(=O)OC(C)(C)C)C(=O)NC(CCCOC(C)=O)C(=O)NC(Cc1ccc([N+](=O)[O-])cc1)C(=O)NCC(=O)OCc1ccccc1` (stereo not drawn) the EC50 was over 200 µM and the IC50 was 16.2 µM.

Work on `O=C1c2ccccc2C(=O)c2c1ccc1c2N=C(c2ccc(Br)cc2)CC(c2cccc3ccccc23)N1` (stereo not drawn) yielded an EC50 of over 64.6 µM and an IC50 of over 64.6 µM.

`COc1cc2c(c([N+](=O)[O-])c1)NC(=O)C(c1ccccc1)S2` (stereo not drawn) showed an EC50 of over 200 µM and an IC50 of 110 µM.

`c1cc2c(c(NC3=NCCO3)c1)CCC2` showed an EC50 of over 200 µM and an IC50 of 112 µM.

For `O=S(=O)(CCC[C@H]1[C@@H](CCOCc2ccccc2)C2CCCN1O2)c1ccccc1` (stereo partly drawn), the EC50 was over 200 µM and the IC50 was 95.5 µM.

Molecule `CN(N)c1cc(=O)[nH]c(=O)[nH]1` has an EC50 of over 200 µM and an IC50 of over 200 µM.

With `Cc1cc(=O)oc2cc(O)cc(O)c12` the EC50 was over 1290 µM and the IC50 was 166 µM.

Work on `CC(=O)OC1C2CCC3CC2C2(SCCS2)C31` (stereo not drawn) yielded an EC50 of over 200 µM and an IC50 of over 200 µM.

`Clc1ccc(CSc2nnc3c(n2)[nH]c2ccccc23)cc1` showed an EC50 of over 200 µM and an IC50 of 42.7 µM.

With `CN1N(c2ccccc2)C(=O)C2=NC=C(C#N)C(=N)C21C` (stereo not drawn) the EC50 was over 200 µM and the IC50 was 64.6 µM.

In the case of `O=C1CC(O)(c2ccccc2)C(c2ccccc2)=C1c1ccccc1` (stereo not drawn), the outcome is reported as “inactive”.

With `c1ccc([P+](Cc2nc3ccccc3[nH]2)(c2ccccc2)c2ccccc2)cc1` the EC50 was over 200 µM and the IC50 was 38.9 µM and 46.8 µM.

In the case of `Cc1nn2c(N)cc(=O)nc2nc1/C=C/c1ccc(N(C)C)cc1`, the EC50 is reported as over 200 µM and the IC50 is reported as 4.27 µM.

`COC(=O)C(=O)C(C(C)=O)C(=O)NCc1ccc(OC)c(OC)c1` (stereo not drawn) was tested, and the EC50 was 61.7 µM and the IC50 was 741 µM.

In the case of `O=C(c1ccccc1)N1C/C(=N\Nc2ccc(Cl)cc2)c2c([nH]c3ccccc23)C1`, the EC50 is reported as over 9.12 µM and the IC50 is reported as over 9.12 µM.

Molecule `CC(=O)c1cc2sc3ccccc3c2[nH]1` has an EC50 of over 200 µM and an IC50 of over 200 µM.

`CC(C)NC(=O)CNC(=O)c1ccccc1SC(=O)CCCC[n+]1ccccc1` gave an EC50 of over 0.575 µM.

In the case of `COc1ccc2c(ccc3c(COC(=O)NC(C)C)c(COC(=O)NC(C)C)n(C)c32)c1`, the EC50 is reported as over 200 µM and the IC50 is reported as 0.112 µM.

In the case of `N#Cc1c(N)sc(N)c1C#N`, the EC50 is reported as over 200 µM and the IC50 is reported as 97.7 µM.

Molecule `O=C(O)CCC(NC(=O)c1ccccc1C(=O)O)C(=O)O` (stereo not drawn) has an EC50 of over 200 µM and an IC50 of over 200 µM.

Molecule `N#Cc1c(Cl)cc(C#N)n2c1nc1ccccc12` has an EC50 of over 20 µM and an IC50 of 0.363 µM.

`CC(C(=O)O)n1[se]c2ccccc2c1=O` (stereo not drawn) showed an EC50 of 12.6 µM and an IC50 of 120 µM.

Work on `O=C1c2cc(Oc3ccccc3)c(S(=O)(=O)O)c(S(=O)(=O)O)c2C(=O)c2c(O)ccc(O)c21` yielded an EC50 of over 200 µM and an IC50 of 72.4 µM.

In the case of `CSc1nc(-c2ccccc2)c2c(n1)-c1ccccc1CC2`, the EC50 is reported as over 12.3 µM and the IC50 is reported as over 12.3 µM.

`CCCNC(C#N)c1ccc(C(C#N)NCCC)cc1` (stereo not drawn) gave an EC50 of over 200 µM and an IC50 of 38.9 µM.

In the case of `O=C([N-]/N=C/c1ccccc1)c1ccccc1[O-].[OH3+].[Zn+2]`, the EC50 is reported as 162 µM and the IC50 is reported as 166 µM.

In the case of `CCOC(=O)c1ccc(CS(=O)(=O)c2ccccc2)c([N+](=O)[O-])c1`, the EC50 is reported as over 102 µM and the IC50 is reported as over 102 µM.

Work on `CN(C)N1C(=O)CC2(CCN(CCCC(=O)c3ccc(F)cc3)CC2)C1=O` yielded an EC50 of over 200 µM and an IC50 of over 200 µM.

`COc1c(C(=O)NCCN(CCNC(=O)c2cccc(-c3cccc(C(=O)N(C)C)c3OC)c2OC)CCNC(=O)c2cccc(-c3cccc(C(=O)N(C)C)c3OC)c2OC)cccc1-c1cccc(C(=O)N(C)C)c1OC` was tested, and the outcome was “inactive”.

`COCCCCCCCCCCCC(=O)OCC1OC(n2cc(C)c(=O)[nH]c2=O)CC1F` (stereo not drawn) showed an EC50 of 0.0112 µM and an IC50 of 0.2 µM.

In the case of `Cc1c(C)c2ccc(OC(C)C(=O)O)cc2oc1=O` (stereo not drawn), the outcome is reported as “inactive”.

`N#Cc1c2ccc([N+](=O)[O-])cc2c(=O)n2c1[nH]c1ccc(C(F)(F)F)cc12` gave an EC50 of over 200 µM and an IC50 of 1.91 µM.

Work on `CCCCCCCCCCCCC/C=C/[C@H]1[C@@H](C(=O)OC)N1S(=O)c1ccc(C)cc1` (stereo partly drawn) yielded an EC50 of over 200 µM and an IC50 of 74.1 µM.

`N.N.N.N.O=S(=O)([O-])[O-].[Co+3].[OH3+].[OH3+]` showed an EC50 of over 39.8 µM and an IC50 of 38.9 µM.

In the case of `CCCCCCCCCCOCC(COCCOCC(COCCCCCCCCCC)OS(=O)(=O)O)OS(=O)(=O)O` (stereo not drawn), the EC50 is reported as over 186 µM and the IC50 is reported as 42.7 µM.

For `C=CCCC(=O)N1CCC(C(=O)OCC)C1=O` (stereo not drawn), the EC50 was over 200 µM and the IC50 was over 200 µM.

In the case of `Nc1ccc(C(=O)N/C(=C\c2cccc([N+](=O)[O-])c2)c2nc3c4c(ccc3[nH]2)C(=O)c2ccccc2C4=O)cc1`, the outcome is reported as “inactive”.

Molecule `COc1ccc(C2=Nn3c(nc4sc(C)c(C)c4c3=O)SC2)cc1` has an EC50 of over 200 µM and an IC50 of over 200 µM.

In the case of `N#Cc1cc2c(cc1C#N)SCCSCCCSCCS2`, the outcome is reported as “inactive”.

Molecule `CCC(=O)C(C)C1=Nc2nnc(CCCCCCCc3nnc4n3C(=O)C(C(C)C(=O)CC)=N4)n2C1=O` (stereo not drawn) has an EC50 of over 1.07 µM and an IC50 of over 1.07 µM.

`c1ccc(SCCCC(Sc2ccccc2)Sc2ccccc2)cc1` was tested, and the outcome was “inactive”.

Work on `C=C[C@]1(C)CC(O)C2C(=C)C(=O)OC2[C@H]1C(=C)C=O` (stereo partly drawn) yielded an EC50 of over 200 µM and an IC50 of 3.31 µM.

`COc1ccc(-c2nnc3n(Cc4ccccc4)c4ccccc4n3c2=O)cc1` gave an EC50 of over 200 µM and an IC50 of over 200 µM.

`CSC1=C(SC)SC(=C2SC3=C(SC(=C4SCCS4)S3)S2)S1` showed an EC50 of over 100 µM and an IC50 of over 100 µM.

`C[C@@H](c1ccccc1)N1CN(C(=O)OCc2ccccc2)C(C)(C)CC1=O` gave an EC50 of over 200 µM and an IC50 of 191 µM.

`COc1ccc2nc(-c3ccccc3)cc(N=[N+]=[N-])c2c1` was tested, and the outcome was “inactive”.

`O=P1(c2ccccc2)Nc2ccccc2N1c1ccccc1` (stereo not drawn) gave an EC50 of over 200 µM and an IC50 of 38 µM.

For `S=c1nc[nH]c2c1ccc1[nH]cnc12`, the EC50 was over 18.6 µM and the IC50 was over 18.6 µM.

For `CCC1CCCCN1CC(C(C)=O)C(c1ccccc1)c1c(O)c2ccccc2oc1=O` (stereo not drawn), the EC50 was over 69.2 µM and the IC50 was over 69.2 µM.

With `COc1ccccc1/C=C(\NC(=O)c1ccccc1)c1nc2ccccc2[nH]1` the EC50 was over 97.7 µM and the IC50 was 47.9 µM.

`CC(=O)OCC1OC(n2c(=S)n(-c3ccc([N+](=O)[O-])cc3)c(=O)c3ccccc32)C(OC(C)=O)C(OC(C)=O)C1OC(C)=O` (stereo not drawn) showed an EC50 of over 29.5 µM and an IC50 of over 29.5 µM.

`NCCCc1nonc1C(=O)O` gave an EC50 of over 200 µM and an IC50 of over 200 µM.

With `N#CC1=C(N)CCC(C#N)(c2ccccc2)C1` (stereo not drawn) the EC50 was over 200 µM and the IC50 was over 200 µM.

`CCOC(=O)/C(=C\c1ccc[nH]1)C(=O)c1ccccc1` showed an EC50 of over 95.5 µM and an IC50 of over 95.5 µM.

Molecule `O=C1C(N=Nc2ccccc2)Sc2nc3ccccc3n21` (stereo not drawn) has an EC50 of over 200 µM and an IC50 of 85.1 µM.

In the case of `Cc1cn(C2CC(N=[N+]=[N-])C(COP(=O)(OCC(=O)c3ccccc3)OCC(=O)c3ccccc3)O2)c(=O)[nH]c1=O` (stereo not drawn), the EC50 is reported as 0.00741 µM and the IC50 is reported as 2 µM.
